Laboratory results published in patent publication US10307404B1, “Ocular formulations for drug-delivery to the posterior segment of the eye” (priority 2013, dated 2019).
Several values for one entry are separate records, joined by “and”; a condition that tells them apart may be missing. Equal values may be shown once.

Tests used:
[1] = Ocular toxicology study, twice daily 0.3% ophthalmic gel drop: ocular tissue concentrations, electroretinograms; type: in vivo, Dutch-Belted rabbits; details: 0.3% gel drop formulations with and without benzylalkonium chloride
Description: (§1) Retinal function was normal in all test article and vehicle treated groups during full-field electroretinograms performed in rabbits.

[2] = target: KDR (VEGFR-2) (Homo sapiens, UniProt P35968); experiment: In vitro inhibition of tyrosine kinases; type: biochemical; details: 300 nM (170.67 ng/mL)
[3] = set-up: species or system Dutch-Belted rabbits and beagle dogs; details: Dutch-belted, beagle, rabbit, dog, in vivo
Description: Animals that received topical ocular administration of the tromethamine-based suspension were able to tolerate up to higher level of the active agent concentration in the formulation, as compared to equimolar formulations of the sodium phosphate-based Gel Drop.
(§2) Overall, the combination of decreased corneal exposure and corresponding improved ocular tolerability, while simultaneously maintaining or promoting drug delivery to the posterior segment target tissues, along with improved physicochemical stability, will provide greater benefit to patients compared to the ophthalmic Gel Drop formulation.
as §1

[4] = Corneal and choroid exposure compared between formulations (topical ocular dosing); type: in vivo, Dutch-belted rabbits
Description: as §2

[5] = tested on: HUVECs; experiment: Inhibition of VEGF-stimulated mitogenesis in HUVECs; type: cell-based; details: Homo sapiens, HUVEC
[6] = 30-day topical ocular tolerability of cyclodextrin-based solutions; type: in vivo
[7] = 5-day PK, topical ocular Compound-I in hydroxypropyl-β-cyclodextrin solutions, 30 μL bilateral dose; type: in vivo, Dutch-Belted rabbits; details: for Average Concentration, Central Retina: LLOQ = 0.0218 μM
Protocol: All doses were administered with ±1 hour of the scheduled dose time, except on day 1 for Groups 1, 4, and 10. The first dose on day 1 was administered at 12:00 PM, and the second dose (for Groups 1 and 10) was administered approximately 4 hours after. This was due to delayed arrival of formulations. All other dosing for these groups was as scheduled. On day 1, Groups 4-8, and 11-12 received one dose (q.d.) for four (4) days. On days 1 through 4, Groups 1-3, and 9-10 received b.i.d. dosing approximately 8 hours apart for four (4) days.
Ocular sampling occurred one hour following the first daily dose on day 5 for all groups, except Groups 5b and 6b, where ocular sampling occurred 24 hours after the first daily dose on day 4.
Blood samples for plasma collection were obtained just prior to scheduled euthanasia for all animals. […] Cornea, central retina, and central choroid samples from groups 1-12 were assayed. Aqueous humor, peripheral retina, and peripheral choroid samples were not assayed.

[8] = Ocular toxicology study, twice daily 0.3% Tris-based suspension, 30 days; type: in vivo, Dutch-Belted rabbits

KDR (VEGFR-2), sequence (P35968 20-1356): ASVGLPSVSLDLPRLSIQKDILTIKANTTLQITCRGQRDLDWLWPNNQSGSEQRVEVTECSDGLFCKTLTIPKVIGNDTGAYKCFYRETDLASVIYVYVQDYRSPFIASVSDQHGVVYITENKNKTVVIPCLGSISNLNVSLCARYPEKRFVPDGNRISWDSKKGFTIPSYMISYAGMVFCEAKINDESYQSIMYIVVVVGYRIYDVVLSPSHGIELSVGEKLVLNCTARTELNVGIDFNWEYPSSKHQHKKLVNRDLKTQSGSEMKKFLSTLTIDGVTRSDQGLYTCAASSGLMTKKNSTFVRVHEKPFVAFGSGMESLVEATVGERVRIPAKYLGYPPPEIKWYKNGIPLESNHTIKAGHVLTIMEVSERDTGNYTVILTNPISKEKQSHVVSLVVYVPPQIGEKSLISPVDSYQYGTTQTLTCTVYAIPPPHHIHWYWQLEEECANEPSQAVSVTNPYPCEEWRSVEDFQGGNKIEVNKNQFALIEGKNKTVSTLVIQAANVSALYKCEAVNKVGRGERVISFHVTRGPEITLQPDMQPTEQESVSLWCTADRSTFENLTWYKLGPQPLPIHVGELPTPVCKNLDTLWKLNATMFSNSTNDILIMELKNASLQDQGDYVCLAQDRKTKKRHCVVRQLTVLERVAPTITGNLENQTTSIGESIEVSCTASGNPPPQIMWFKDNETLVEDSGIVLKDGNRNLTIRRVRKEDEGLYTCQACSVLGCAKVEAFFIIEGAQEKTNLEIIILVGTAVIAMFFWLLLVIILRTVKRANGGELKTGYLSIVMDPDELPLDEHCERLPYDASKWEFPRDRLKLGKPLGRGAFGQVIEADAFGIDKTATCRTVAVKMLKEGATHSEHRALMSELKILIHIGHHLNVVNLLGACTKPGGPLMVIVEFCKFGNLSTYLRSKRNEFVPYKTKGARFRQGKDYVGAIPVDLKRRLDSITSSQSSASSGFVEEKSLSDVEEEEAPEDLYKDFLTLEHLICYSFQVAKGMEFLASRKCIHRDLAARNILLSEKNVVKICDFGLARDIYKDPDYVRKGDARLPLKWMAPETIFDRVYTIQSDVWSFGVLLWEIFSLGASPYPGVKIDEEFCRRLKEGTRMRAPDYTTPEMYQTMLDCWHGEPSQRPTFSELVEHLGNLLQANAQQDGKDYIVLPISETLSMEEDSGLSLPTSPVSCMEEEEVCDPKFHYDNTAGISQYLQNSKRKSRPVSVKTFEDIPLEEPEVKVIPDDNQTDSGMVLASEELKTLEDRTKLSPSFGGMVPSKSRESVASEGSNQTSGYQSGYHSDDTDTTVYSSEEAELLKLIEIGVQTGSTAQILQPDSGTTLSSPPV

Structure (SMILES): Cl.NC(=O)c1c(OCc2c(F)cc(Br)cc2F)nsc1NC(=O)NCCCCN1CCCC1 [Compound-I, 3-[(4-bromo-2,6-difluorophenyl)methoxy]-5-[[[[4-(1-pyrrolidinyl)butyl]amino]carbonyl]amino]-4-isothiazolecarboxamide hydrochloride]
- Mean ocular tissue concentration, peripheral retina [1]: 0.150 to 0.3091 µM
- VEGFR-2 kinase function [2]: completely inhibited
- cornea concentration above which ocular side effects were more consistently observed [3]: exceeded 100 μM
- reduction in corneal concentrations versus equimolar Gel Drop ([4]; cyclodextrin-based solutions, 1 to 30 days dosing, Dutch-belted rabbits): ~10 ×
- clinical or histopathologic findings ([4]; ophthalmic solution, repeated topical ocular dosing, rabbits and dogs): free of untoward clinical or histopathologic findings
- target therapeutic exposure in the central choroid versus equimolar ophthalmic gel drop ([4]; ophthalmic solution, topical ocular dosing): equal or higher
- corneal concentrations, Gel Drop compared to Tris-based suspensions ([4]; rabbit, in vivo): fifty-fold to hundred-fold higher
- corneal concentrations, Gel Drop compared to cyclodextrin based solution ([4]; rabbit, in vivo): five-fold to fifteen-fold higher
- reduction of exposure (cornea) ([4]; suspension-based and cyclodextrin formulations): 10-100 ×
- IC50 [5]: 14.1 nM and 0.008 µg/mL
- findings attributed to test-article or vehicle ([6]; 0.6% cyclodextrin-based solution, 30 days of topical ocular dosing): no untoward findings
- ocular toxicity, clinical ophthalmic or microscopic examinations ([6]; rabbit, in vivo): No overt ocular toxicity
- tolerability ([6]; rabbit, in vivo): well tolerated
- Average Concentration, Central Choroid ([7]; Group 5a q.d., 1 hr after first daily dose on day 5, n = 1): *0.199 μM
- Average Concentration, Central Retina ([7]; Group 5b q.d., 24 hr after first daily dose on day 4): <LLOQ
- Average Concentration, Central Retina ([7]; Group 6b q.d., 24 hr after first daily dose on day 4): <LLOQ
- Average Concentration, Central Choroid ([7]; Group 6b q.d., 24 hr after first daily dose on day 4, n = 1): *0.218 μM
- Average Concentration, Central Choroid ([7]; Group 7 q.d., 1 hr after first daily dose on day 5, LLOQ = 0.174 μM): <LLOQ
- Average Concentration, Central Choroid ([7]; Group 8 q.d., 1 hr after first daily dose on day 5, n = 1): *0.210 μM
- Average Concentration, Central Choroid ([7]; Group 9 b.i.d., 1 hr after first daily dose on day 5, n = 1): *0.287 μM
- eyes at microscopic evaluation ([8]; 0.3% w/v Tris-based suspension twice daily for 30 days): considered normal
- tolerability, clinical ophthalmic examinations ([8]; rabbit, in vivo): well tolerated
